Measured values: ChEMBL document CHEMBL1125685, “Benzyloxazolidine-2,4-diones as potent hypoglycemic agents” (1991)

Experiments:
Type in all cases: functional
Mus musculus [1] = assay: Percentage glucose normalization relative to the ciglitazone effect at 50 mg/kg, which lower blood glucose levels to that of the lean littermates at the dose 0.1 mg/kg (in mice)
Mus musculus [2] = assay: Percentage glucose normalization relative to the ciglitazone effect at 50 mg/kg, which lower blood glucose levels to that of the lean littermates at the dose 0.2 mg/kg (in mice)
Mus musculus [3] = assay: Percentage glucose normalization relative to the ciglitazone effect at 50 mg/kg, which lower blood glucose levels to that of the lean littermates at the dose 0.5 mg/kg (in mice)
Mus musculus [4] = assay: Percentage glucose normalization relative to the ciglitazone effect at 50 mg/kg, which lower blood glucose levels to that of the lean littermates at the dose 1 mg/kg (in mice)
Mus musculus [5] = assay: Percentage glucose normalization relative to the ciglitazone effect at 50 mg/kg, which lower blood glucose levels to that of the lean littermates at the dose 5 mg/kg (in mice)
Mus musculus [6] = assay: Percentage glucose normalization relative to the ciglitazone effect at 50 mg/kg, which lower blood glucose levels to that of the lean littermates at the dose 0.025 mg/kg (in mice)
Mus musculus [7] = assay: Percentage glucose normalization relative to the ciglitazone effect at 50 mg/kg, which lower blood glucose levels to that of the lean littermates at the dose 0.05 mg/kg (in mice)
Mus musculus [8] = assay: Percentage glucose normalization relative to the ciglitazone effect at 50 mg/kg, which lower blood glucose levels to that of the lean littermates at the dose 25 mg/kg (in mice)
Mus musculus [9] = assay: Percentage glucose normalization relative to the ciglitazone effect at 50 mg/kg, which lower blood glucose levels to that of the lean littermates at the dose 10 mg/kg (in mice)

SMILES | Glucose normalisation (Mus musculus [2]) [%] | Glucose normalisation (Mus musculus [3]) [%] | Glucose normalisation (Mus musculus [4]) [%] | further results
Cc1oc(C2CCCCC2)nc1Cc1cc2cc(CC3OC(=O)NC3=O)ccc2o1 (stereo unspecified) | 91 | – | – | Glucose normalisation (Mus musculus [1]): 64%
Cc1oc(-c2ccccc2)nc1CCOc1ccc(CC2OC(=O)NC2=O)cc1 (stereo unspecified) | – | 28 | 100 | –
Cc1oc(-c2ccccc2)nc1CCC(=O)c1ccc(CC2OC(=O)NC2=O)cc1 (stereo unspecified) | – | – | 13 | Glucose normalisation (Mus musculus [5]): 75%
Cc1oc(-c2ccc3ccccc3c2)nc1Cc1cc2cc(CC3OC(=O)NC3=O)ccc2o1 (stereo unspecified) | 70 | – | 75 | Glucose normalisation (Mus musculus [1]): 76%
Cc1oc(-c2cc(C(F)(F)F)cc(C(F)(F)F)c2)nc1CCOc1ccc(CC2OC(=O)NC2=O)cc1 (stereo unspecified) | 14 | 95 | – | –
Cc1oc(-c2ccccc2)nc1CCOc1ccc(C2OC(=O)NC2=O)cc1 (stereo unspecified) | – | – | 0 | –
Cc1sc(-c2ccc3ccccc3c2)nc1CCOc1ccc(CC2OC(=O)NC2=O)cc1 (stereo unspecified) | – | 0 | – | –
Cc1oc(-c2ccccc2)nc1Cc1cc2cc(CC3OC(=O)NC3=O)ccc2o1 (stereo unspecified) | 100 | – | – | Glucose normalisation (Mus musculus [6]): 65%; Glucose normalisation (Mus musculus [7]): 77%; Glucose normalisation (Mus musculus [1]): 92%; Glucose normalisation (Mus musculus [5]): 100%
Cc1ccc(-c2nc(Cc3cc4cc(CC5OC(=O)NC5=O)ccc4o3)c(C)o2)cc1 (stereo unspecified) | 100 | – | – | Glucose normalisation (Mus musculus [1]): 40%
Cc1cccc(-c2nc(Cc3cc4cc(CC5OC(=O)NC5=O)ccc4o3)c(C)o2)c1 (stereo unspecified) | – | 100 | – | Glucose normalisation (Mus musculus [1]): 90%
O=C1NC(=O)C(Cc2ccc(Oc3ccc4oc(-c5ccccc5)nc4c3)cc2)O1 (stereo unspecified) | – | – | – | Glucose normalisation (Mus musculus [8]): 0%
Cc1nc(-c2ccc3ccccc3c2)oc1CCOc1ccc(CC2OC(=O)NC2=O)cc1 (stereo unspecified) | – | – | 0 | Glucose normalisation (Mus musculus [5]): 10%
Cc1oc(-c2ccco2)nc1CCOc1ccc(CC2OC(=O)NC2=O)cc1 (stereo unspecified) | – | – | 14 | Glucose normalisation (Mus musculus [5]): 24%
Cc1sc(-c2ccccc2)nc1Cc1cc2cc(CC3OC(=O)NC3=O)ccc2o1 (stereo unspecified) | – | 0 | – | –
COc1ccc(-c2nc(CCOc3ccc(CC4OC(=O)NC4=O)cc3)c(C)o2)cc1 (stereo unspecified) | – | 53 | 80 | –
Cc1oc(-c2ccc3ccccc3c2)nc1CCOc1ccc(CC2OC(=O)NC2=O)cc1 (stereo unspecified) | 46 | 100 | 98 | –
O=C1NC(=O)C(Cc2ccc(OCCc3oc(-c4ccccc4)nc3Cc3ccccc3)cc2)O1 (stereo unspecified) | – | – | – | Glucose normalisation (Mus musculus [9]): 40%
Cc1oc(-c2ccccc2)nc1COc1ccc(CC2OC(=O)NC2=O)cc1 (stereo unspecified) | – | – | – | Glucose normalisation (Mus musculus [5]): 60%
Cc1oc(C2CCCCC2)nc1CCOc1ccc(CC2OC(=O)NC2=O)cc1 (stereo unspecified) | – | – | 61 | –
